Test results published in ChEMBL document CHEMBL1201862, “PubChem BioAssay data set” (2004).
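Results reflect a 48-hour exposure of cells in 96-well plates to compound at five concentrations. GI50 is the concentration that inhibits growth by half.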 Calls of active or inactive are those of the source. Cut-off read from the data, not from the text of the source: active = GI50 up to about 1.1 µM and inactive = higher.

Columns and labels:
Assay in all cases: inhibition of tumour cell growth, NCI panel, 48 h
[1] = system: ACHN
[2] = system: MDA-MB-435
[3] = system: T47D
[4] = system: PC-3
[5] = system: M14
[6] = system: DU-145
[7] = system: MOLT-4
[8] = system: NCI-H522
[9] = system: LOX IMVI
[10] = system: SK-MEL-5
[11] = system: TK-10
[12] = system: SF-268
[13] = system: K562
[14] = system: OVCAR-5
[15] = system: HOP-92
[16] = system: HCT-116
[17] = system: 786-0
[18] = system: NCI-H460
[19] = system: IGROV-1
[20] = system: A498
[21] = system: Malme-3M
[22] = system: MDA-MB-231
[23] = system: CAKI-1
[24] = system: UACC-257
[25] = system: Hs-578T
[26] = system: OVCAR-8
[27] = system: CCRF-CEM
[28] = system: SN12C
[29] = system: KM12
[30] = system: EKVX
[31] = system: NCI-H23
[32] = system: NCI/ADR-RES
[33] = system: OVCAR-4
[34] = system: HCT-15
[35] = system: SW-620
[36] = system: SF-295
[37] = system: UACC-62
[38] = system: U-251
[39] = system: A549
[40] = system: SNB-19
[41] = system: OVCAR-3
[42] = system: SK-MEL-2
[43] = system: HL-60
[44] = system: SK-MEL-28
[45] = system: HOP-62
[46] = system: RXF 393
[47] = system: BT-549
[48] = system: NCI-H226
[49] = system: HT-29
[50] = system: MDA-N
[51] = system: UO-31
[52] = system: SR
[53] = system: MCF7
[54] = system: SF-539
[55] = system: HCC 2998
[56] = system: COLO 205

Measured: GI50

CC1CCC(O)(C(C)(C(=O)O)c2ccccc2)CC1 (stereo not given)
inactive: [1] > 100 µM | [2] > 100 µM | [3] > 100 µM | [4] > 100 µM | [5] 49 µM | [6] > 100 µM | [7] 22 µM | [8] > 100 µM | [9] > 100 µM | [10] > 100 µM | [11] > 100 µM | [12] > 100 µM | [13] > 100 µM | [14] > 100 µM | [15] 83.9 µM | [16] > 100 µM | [17] > 100 µM | [18] 42.8 µM | [19] > 100 µM | [20] 68.4 µM | [21] 63.4 µM | [22] > 100 µM | [23] 57.4 µM | [24] > 100 µM | [25] 74 µM | [26] > 100 µM | [27] 82.8 µM | [28] > 100 µM | [29] > 100 µM | [30] > 100 µM | [31] > 100 µM | [32] > 100 µM | [33] > 100 µM | [35] > 100 µM | [36] > 100 µM | [37] > 100 µM | [38] 64 µM | [39] 42.2 µM | [40] 48.3 µM | [41] > 100 µM | [42] > 100 µM | [43] > 100 µM | [44] > 100 µM | [45] 68.1 µM | [46] > 100 µM | [47] > 100 µM | [48] 91.6 µM | [49] > 100 µM | [50] > 100 µM | [51] > 100 µM
> 100 µM: [34]

COc1cc2c3c(n(CCCNCCO)c(=O)c2cc1OC)-c1cc2c(cc1C3=O)OCO2
inactive: [11] 1.38 µM | [25] 1.71 µM
active: [1] < 0.01 µM | [3] 0.0165 µM | [4] 1.02 µM | [5] 0.0422 µM | [6] < 0.01 µM | [7] < 0.01 µM | [8] < 0.038 µM | [9] < 0.01 µM | [10] 0.19 µM | [12] < 0.0338 µM | [14] 0.384 µM | [17] < 0.01 µM | [18] < 0.01 µM | [19] 0.0935 µM | [20] 0.378 µM | [22] 0.537 µM | [26] 0.158 µM | [27] < 0.01 µM | [28] < 0.01 µM | [29] 0.541 µM | [31] < 0.01 µM | [52] < 0.01 µM | [32] 0.546 µM | [53] < 0.01 µM | [54] 0.0381 µM | [35] 0.16 µM | [36] < 0.01 µM | [37] 0.0236 µM | [40] 0.012 µM | [55] 0.536 µM | [41] 0.813 µM | [43] < 0.0465 µM | [47] 0.935 µM | [48] 0.206 µM | [56] 0.392 µM | [49] < 0.0311 µM | [50] 0.611 µM
